The values below come from patent US9884856B2, “Crystal form of Dabrafenib mesylate and preparation method thereof” (Hangzhou Pushai Pharmaceutical Technology Co., LTD., priority 2013, dated 2018).

Each structure is given as a SMILES string. “And” between values parts separate entries of the source, which are not always exact repeats. Equal entries are not always repeated. “Also recorded” adds a separate entry of the source.

One series has as its system BRAFV600E-mutan melanoma. As to conditions: patients with BRAFV600E-mutan melanoma; cited from earlier work.
A short description of series [1]: Stability during wet granulation in formulation process (XRPD). The series is classed as physicochemical. The conditions noted are these: methanesulfonate; for Form of API in wet granule sample (XRPD): wet granulation with 50% aqueous ethanol, lactose monohydrate, microcrystalline cellulose. The source says: The stability of the Known Crystal Form I of Dabrafenib methanesulfonate and Crystal Form IV of the present invention during wet granulation in formulation process was studied.
Wet granulation experiments in the formulation process were parallel experiments. The specific steps are:
1) Blend API (the Known Crystal Form I or Crystal Form IV of the present invention), lactose (monohydrate) and microcrystalline cellulose uniformly.
2) Make the above mixture into soft materials by using appropriate amount of 50% aqueous ethanol solution, screen to produce wet granules.
3) Dry the wet granules and then granulate them, blend with polyethylene glycol 6000 uniformly and then compress them into tablets.
Characterize the Known Crystal Form I and Crystal Form IV of the present invention samples obtained from the formulation process of: (1) the sample obtained from physically mixing lactose monohydrate and microcrystalline cellulose at the ratios per the formulation; (2) the sample obtained from physically mixing of API, lactose monohydrate and microcrystalline cellulose at the ratios per the formulation; (3) the wet granule sample obtained from the wet granulation process (excluding the compressed tablets in Step 3). See XRPDs in FIG. 16 and FIG. 17.

Series [2] can be described thus: Dissolution profile in ultrapure water (HPLC). It counts as physicochemical. The conditions noted are these: for Dissolution: ultrapure water. As for the experimental part: The analysis data of high performance liquid chromatography (HPLC) are collected by Agilent 1260 with the chemical working station of B.04. The corresponding HPLC parameters in this research are: chromatographic column SB-C18 250×4.6 mm 5 μm; column temperature 35° C.; flow rate 0.6 mL/min; flow phase as shown below; wavelength 254 nm; sample inject volume 20 μl; operation time 30 min.
The comparison of dissolution profiles is performed by the following procedures: place about 6 mg the sample in a […], add 15 mL ultrapure water, and then seal the vial. A suspension is obtained from sonication with a working power of 40 Khz at room temperature, then take 1 mL of the suspension at 10 min, 30 min, 2 hr and 6 hr, respectively; filter it with 0.45 μm organic filter membrane to, take the filtrate to be measured by HPLC; stir the remaining suspension for 16 hr at room temperature, and then filter it with 0.45 μm organic filter membrane, take the filtrate to be measured by HPLC. FIG. 15 is the comparison plot of dissolution profiles of Crystal Form IV and the Known Crystal Form I in Experimental Example 1 (▴ refers to Crystal Form IV, ▮ refers to the Known Crystal Form I).

Series [3] is described as follows: Storage stability of crystal forms (XRPD before and after placement). The series is classed as physicochemical. As to conditions: methanesulfonate. As to the method: (§1) The stability is performed by comparing the storage stability and the stirring test in water on crystalline forms.
The storage stability is performed by placing the samples under a constant condition (i.e. under constant humidity or constant temperature) for a certain period of time, and then comparing their XRPDs before and after placement.

Series [4] in a line: Stirring test in water (XRPD comparison). The series is classed as physicochemical. As to conditions: methanesulfonate; for Stirring test in water: form after stirring: 10 mg in 1 mL water; for Stability in water or aqueous system(s): general statement. As to the method: as §1
The stirring test in water is performed by, for each crystalline form, adding an equal amount of the sample (10 mg) to an equal amount of water (1 mL) to form a suspension, stirring the suspensions for a certain time at room temperature, and then comparing their XRPDs.

The nature of series [5]: Hygroscopicity by dynamic vapor sorption (DVS). It counts as physicochemical. As for the experimental part: The dynamic vapor sorption analysis (DVS) data are collected by TA Instruments Q5000 TGA; the instrument control software is Thermal Advantage and the analysis software is Universal Analysis. Generally, take 1˜10 mg of the sample and place it in a platinum pan, and the weight changes of the sample are recorded during the course of the relative humidity changing from 0% to 80% and then to 0%. According to the specifics of the samples, different adsorption and desorption steps may be used.
Compare hygroscopicity in weight changes of samples between 20%-80% RH obtained by DVS tests.

The nature of series [6]: Decomposition temperature by TGA. As to conditions: methanesulfonate. It counts as physicochemical. As for the experimental part:
The thermogravimetric analysis (TGA) data are collected by TA Instruments Q500 TGA; the instrument control software is Thermal Advantage and the analysis software is Universal Analysis. Generally, take 5˜15 mg sample and place it in a platinum pan, adopt the segmental high-resolution testing mode, and under the protection of 50 mL/min dry N2, heat the sample from room temperature to 350° C. at the heating rate of 10° C./min, the weight changes of the sample during the course are recorded by TA software simultaneously.
Compare decomposition temperatures obtained by TGA tests.

For series [7], the system named is one or more Raf-family kinases. The conditions noted are these: disclosed in WO2009/137391 and CN200980126781.6; cited from earlier work.
The mark [8] stands for this setting: 6 hours + 16 hours stirring at room temperature, methanesulfonate.
Where [9] appears, read: sonication, room temperature, 10 minutes, methanesulfonate.
[10] abbreviates: sonication, room temperature, 30 minutes, methanesulfonate.
[11] abbreviates: sonication, room temperature, 2 hours, methanesulfonate.
Where [12] appears, read: sonication, room temperature, 6 hours, methanesulfonate.
[13] abbreviates: stored for 1 month at room temperature - 97% RH.
The mark [14] stands for this setting: stored for 1 month at room temperature.
Where [15] appears, read: stirred 15 min at room temperature.

For the compound `CC(C)(C)c1nc(-c2cccc(NS(=O)(=O)c3c(F)cccc3F)c2F)c(-c2ccnc(N)n2)s1` [Dabrafenib], in the series with BRAFV600E-mutan melanoma, the Safety profile entry is listed as “acceptable safety profile” and the Therapeutic activity entry is given as “has therapeutic activities”.

As to `CC(C)(C)c1nc(-c2cccc(NS(=O)(=O)c3c(F)cccc3F)c2F)c(-c2ccnc(N)n2)s1` [Crystal Form IV, N-[3-[5-(2-amino-4-pyrimidinyl)-2-(tert-butyl)-thiazol-4-yl]-2-fluorophenyl]-2,6-difluorobenzene sulfonamide methanesulfonate], the “Stability in the wet granulation process” value in series [1] is on record as “stable”. Further, in series [1], the “Form of API in wet granule sample (XRPD)” value is “remained as Crystal Form IV”. In series [2] (0~22 h, any test point, methanesulfonate), the “Dissolution rate / dissolution quantity compared with the Known Crystal Form I” value is listed as “higher than that of the Known Crystal Form I at any test point; also recorded: larger than that of the Known Crystal Form I at any test point”. In addition, the “Time to the end point in water during dissolution” value in series [2] (compared with the Known Crystal Form I) was “Form IV is shorter than that of the Known Crystal Form I”. Further, the Dissolution in series [2] (setting [8]) came out at 0.000178 mg/mL; in series [2] (setting [9]) it was 0.000532 mg/mL; in series [2] (setting [10]), 0.000303 mg/mL; in series [2] (setting [11]), 0.000376 mg/mL; in series [2] (setting [12]) it was 0.000488 mg/mL. In addition, the “Storage stability (crystal form)” value was “remained unchanged and stable and 97% RH, respectively, the crystal forms remained unchanged” in series [3] (setting [13]); “remained unchanged and stable and 97% RH, respectively, the crystal forms remained unchanged” in series [3] (setting [14]). In addition, the “Stirring test in water: form after stirring” value in series [4] (setting [15]) is “still remained as methanesulfonate; also recorded: still remains its Crystal Form IV of methanesulfonate; also recorded: remained as methanesulfonate and after”; in series [4] (stirred overnight at room temperature), “converted to its free base; also recorded: converts to its free base monohydrate; also recorded: free base (FIG. 14)”. Also, the “Stability in water or aqueous system(s)” value in series [4] was “better stability in water or aqueous system(s)”. In addition, in series [5] (between 20% RH-80% RH), the “Weight change (dynamic vapor sorption)” value came to 2.0%.

On to `CC(C)(C)c1nc(-c2cccc(NS(=O)(=O)c3c(F)cccc3F)c2F)c(-c2ccnc(N)n2)s1` [Crystal Form II, N-[3-[5-(2-amino-4-pyrimidinyl)-2-(tert-butyl)-thiazol-4-yl]-2-fluorophenyl]-2,6-difluorobenzene sulfonamide methanesulfonate], for which the Decomposition temperature in series [6] worked out at 287 °C.

With `CC(C)(C)c1nc(-c2cccc(NS(=O)(=O)c3c(F)cccc3F)c2F)c(-c2ccnc(N)n2)s1` [Known Crystal Form I, N-[3-[5-(2-amino-4-pyrimidinyl)-2-(tert-butyl)-thiazol-4-yl]-2-fluorophenyl]-2,6-difluorobenzene sulfonamide methanesulfonate, reference compound], the “Stability in the wet granulation process” value in series [1] was “unstable”. Further, in series [1], the “Form of API in wet granule sample (XRPD)” value is “partially or totally converted to Dabrafenib free base hydrate”. For the same compound, the Dissolution in series [2] (setting [8]) is 7.48e-05 mg/mL; in series [2] (setting [9]), 0.00012 mg/mL; in series [2] (setting [10]), 7.23e-05 mg/mL; in series [2] (setting [11]), 9.28e-05 mg/mL; in series [2] (setting [12]), 8.88e-05 mg/mL. In addition, the “Storage stability (crystal form)” value in series [3] (setting [13]) is “remained unchanged and 97% RH, respectively, the crystal forms remained unchanged”; in series [3] (setting [14]) it was “remained unchanged and 97% RH, respectively, the crystal forms remained unchanged”. In series [4] (setting [15]), the “Stirring test in water: form after stirring” value is on record as “consistent with the above-mentioned Dabrafenib free base hydrate; also recorded: converted to its free base; also recorded: converts to its free base monohydrate; also recorded: min, it converted to the free”. The “Stability in water or aqueous system(s)” value in series [4] was “readily converts to free base”. Also, the “Form stability under humidity” value in series [5] (25° C. and 20-80% RH, methanesulfonate) was “stable at 25 °C and 20-”. Besides, the Hygroscopicity result in series [5] (DVS) is recorded as “Non-hygroscopic; the form is”.

As to `CC(C)(C)c1nc(-c2cccc(NS(=O)(=O)c3c(F)cccc3F)c2F)c(-c2ccnc(N)n2)s1` [Dabrafenib methanesulfonate, N-[3-[5-(2-amino-4-pyrimidinyl)-2-(tert-butyl)-thiazol-4-yl]-2-fluorophenyl]-2,6-difluorobenzene sulfonamide methanesulfonate], the “Inhibitory effects on Raf-family kinases” value in series [7] is “exhibited inhibitory effects”.
